Here are results for four compounds from patent EP0049797A2, “Anthelminticum containing 2-(2,3-dimethyl-phenoxy-methyl)-2-imidazoline” (BAYER AG, priority 1980, dated 1982).

SMILES strings stand for the structures. Where two headings read alike, the source gives them in different places.

The test system of assay [1] is Haemonchus contortus normaler Stamm. Put plainly: Stomach and intestinal worm test in sheep (faecal egg count reduction), normal strain. The class given is in vivo, Schaf. Particulars: read-out: Dosis effectiva minima (Red. 90 % in mg/kg). An excerpt:
(§1) Magen- und Darmwurmtest/Schaf
(§2) Experimentell mit Haemonchus contortus infizierte Schafe wurden nach Ablauf der Präpatenzzeit der Parasiten behandelt. Die Wirkstoffmenge wurde als reiner Wirkstoff in Gelatinekapseln oral appliziert oder in einem geeigneten Lösungsmittel gelöst und subcutan oder dermal appliziert.
(§3) Der Wirkungsgrad wird dadurch bestimmt, daß man die mit dem Kot ausgeschiedenen Wurmeier vor und nach der Be-handlung quantitativ auszählt.
(§4) Ein völliges Sistieren der Eiausscheidung nach der Behandlung bedeutet, daß die Würmer abgetrieben wurden oder so geschädigt sind, daß sie keine Eier mehr produzieren können (Dosis effectiva). Geprüfte Wirkstoffe und wirksame Dosierungen (dosis effectiva minima) sind aus der nachfolgenden Tabelle ersichtlich.

For assay [2], the system named is Haemonchus contortus gegen Benz-imidazole resistenter Stamm. Put plainly: Stomach and intestinal worm test in sheep (faecal egg count reduction), benzimidazole-resistant strain. The class given is in vivo, Schaf. Particulars: read-out: Dosis effectiva minima (Red. 90 % in mg/kg), per os, experimentally infected sheep.
Description: as §1, §2, §3, §4

Where [3] appears, read: per os, experimentally infected sheep, normaler Stamm.

Turning to `CCCSc1ccc2nc(NC(=O)OC)[nH]c2c1` [Albendazol], the minimal effective dose in assay [1] is 0.5 mg/kg; in assay [2], 5 mg/kg.

For the compound `Cc1cccc(OCC2=NCCN2)c1C` [2-(2,3-Dimethyl-phenoxymethyl)-2-imidazolin], the minimal effective dose in assay [1] (dermal, experimentally infected sheep, normaler Stamm) was determined as 1 mg/kg; in assay [1] (setting [3]), 0.5 mg/kg; in assay [1] (subcutan, experimentally infected sheep, normaler Stamm), 0.5 mg/kg.

For the compound `c1ccc2[nH]c(-c3cscn3)nc2c1` [Thiabenzol], the minimal effective dose came out at 25 mg/kg in assay [1] (setting [3]) and 250 mg/kg in assay [2].

Regarding `CCCCc1ccc2[nH]c(NC(=O)OC)nc2c1` [Parbendazol], the minimal effective dose was 1 mg/kg in assay [1] and 10 mg/kg in assay [2].
